Values of other authors in US6727058B2, “Intergrase assay” (priority 1998, dated 2004).

Target: lacR (Escherichia coli, UniProt P03023)
Settings: association constant; Barkley & Bourgeios 1980

Chain of lacR (P03023 whole entry): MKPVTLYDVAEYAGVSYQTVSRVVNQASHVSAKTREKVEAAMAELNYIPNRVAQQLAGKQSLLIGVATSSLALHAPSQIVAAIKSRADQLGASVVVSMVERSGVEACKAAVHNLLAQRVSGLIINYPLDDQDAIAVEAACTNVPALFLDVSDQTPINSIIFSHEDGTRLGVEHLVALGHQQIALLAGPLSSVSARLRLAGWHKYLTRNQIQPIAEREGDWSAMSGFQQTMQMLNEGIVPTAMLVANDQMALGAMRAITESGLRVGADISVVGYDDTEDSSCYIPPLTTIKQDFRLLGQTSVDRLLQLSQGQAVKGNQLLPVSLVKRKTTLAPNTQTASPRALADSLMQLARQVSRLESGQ

Compound: CC(C)S[C@@H]1O[C@H](CO)[C@H](O)[C@H](O)[C@H]1O [IPTG]
- ka of lacR complexing IPTG: ≈ 10^6 M^−1
